Measurements published in patent publication US11702429B2, “mTORC modulators and uses thereof” (Aeovian Pharmaceuticals, Inc., priority 2019, dated 2023).
Where two headings read alike, the source gives them in different places.

Legend:
mTORC1 = target: T1, mTORC1 (Homo sapiens, UniProt P42345+P62942); experiment: Inhibition assay for mTORC1: phosphorylation of pS6K at Thr389, AlphaLISA in PC3 cells; assay type: cell-based; details: for IC50: read-out: pIC50 mTORC1 (converted)
T1 construct: endogenous in cells; host or cells: PC3 cells (human prostate adenocarcinoma)
Method: (§1) The IC50s of the inhibition of mTORC1 and mTORC2 were determined in vitro by determining the phosphorylation of pS6K at position Thr389 (mTORC1 inhibition) and pAkt at Ser473 (mTORC2 inhibition). In vitro studies were performed with AlphaLISA® technology using PC3 cells (Prostate Adenocarcinoma; Human (Homo sapiens)). The cells were seeded in 96 well plates and were treated for 24 hours with the different compounds. […] All analysis were performed using GraphPad Prism 7.0 (GraphPad Software, San Diego, USA).

mTORC2 = target: T2, mTORC2 (Homo sapiens, UniProt P42345+P62942); experiment: Inhibition assay for mTORC2: phosphorylation of pAkt at Ser473, AlphaLISA in PC3 cells; assay type: cell-based; details: for IC50: read-out: pIC50 mTORC2 (converted)
T2 construct: endogenous in cells; host or cells: PC3 cells (human prostate adenocarcinoma)
T2 sequence (P62942 2-108 limits assumed, other chains not shown): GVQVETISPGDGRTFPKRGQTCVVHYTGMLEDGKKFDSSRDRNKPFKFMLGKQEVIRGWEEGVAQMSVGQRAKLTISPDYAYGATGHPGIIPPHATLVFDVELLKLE
Method: as §1

[1] = PC3 cells, treated 24 hours, pS6K Thr389, AlphaLISA, C16 diastereomer mixtures not separated
[2] = PC3 cells, treated 24 hours, pAkt Ser473, AlphaLISA, C16 diastereomer mixtures not separated

Row | Structure (SMILES) | IC50 (mTORC1) [nM] | IC50 (mTORC2) [nM] | other results
1 | CO[C@@H]1C[C@H](C[C@@H](C)[C@@H]2CC(=O)[C@H](C)/C=C(\C)[C@@H](O)[C@@H](OC)C(=O)[C@H](C)C[C@H](C)/C=C/C=C/C=C(\C)C(OCCOCCO)C[C@@H]3CC[C@@H](C)[C@@](O)(O3)C(=O)C(=O)N3CCCCC3C(=O)O2)CC[C@H]1O (stereo partly shown) [Compound 224] | 0.316 to 3.16 | > 10000 | –
2 | CO[C@@H]1C[C@H](C[C@@H](C)[C@@H]2CC(=O)[C@H](C)/C=C(\C)[C@@H](O)[C@@H](OC)C(=O)[C@H](C)C[C@H](C)/C=C/C=C/C=C(\C)C(OCCCCO)C[C@@H]3CC[C@@H](C)[C@@](O)(O3)C(=O)C(=O)N3CCCCC3C(=O)O2)CC[C@H]1O (stereo partly shown) [Compound 221] | < 0.316 | 1000 to 10000 | –
3 | CO[C@@H]1C[C@H](C[C@@H](C)[C@@H]2CC(=O)[C@H](C)/C=C(\C)[C@@H](O)[C@@H](OC)C(=O)[C@H](C)C[C@H](C)/C=C/C=C/C=C(\C)C(OCCO)C[C@@H]3CC[C@@H](C)[C@@](O)(O3)C(=O)C(=O)N3CCCC[C@H]3C(=O)O2)CC[C@H]1OCCCN1CCN(C)CC1 (mixture of isomers) [Compound 34] | – | – | IC50 (mTORC1; [1]): 0.316 to 3.16 nM; IC50 (mTORC2; [2]): > 10000 nM
4 | CO[C@@H]1C[C@H](C[C@@H](C)[C@@H]2CC(=O)[C@H](C)/C=C(\C)[C@@H](O)[C@@H](OC)C(=O)[C@H](C)C[C@H](C)/C=C/C=C/C=C(\C)C(OCCO)C[C@@H]3CC[C@@H](C)[C@@](O)(O3)C(=O)C(=O)N3CCCC[C@H]3C(=O)O2)CC[C@H]1OC(=O)NCCc1ccccc1 (mixture of isomers) [Compound 1, [(1R,2R,4S)-4-[(2R)-2-[(1R,9S,12SR,15R,16E,18R,19R,21R,23S,24E,26E,28E,32SR,35R)-1,18-dihydroxy-30-(2-hydroxyethoxy)-19-methoxy-15,17,21,23,29,35-hexamethyl-2,3,10,14,20-pentaoxo-11,36-dioxa-4-azatricyclo[30.3.1.0^4,9]hexatriaconta-16,24,26,28-tetraen-1^2-yl]propyl]-2-methoxy-cyclohexyl] N-(2-phenylethyl)carbamate] | – | – | IC50 (mTORC1; [1]): < 0.316 nM; IC50 (mTORC2; [2]): > 10000 nM
5 | CO[C@@H]1C[C@H](C[C@@H](C)[C@@H]2CC(=O)[C@H](C)/C=C(\C)[C@@H](O)[C@@H](OC)C(=O)[C@H](C)C[C@H](C)/C=C/C=C/C=C(\C)C(OC3CC3)C[C@@H]3CC[C@@H](C)[C@@](O)(O3)C(=O)C(=O)N3CCCCC3C(=O)O2)CC[C@H]1O (stereo partly shown) [Compound 209] | < 0.316 | < 1000 | –
6 | CO[C@@H]1C[C@H](C[C@@H](C)[C@@H]2CC(=O)[C@H](C)/C=C(\C)[C@@H](O)[C@@H](OC)C(=O)[C@H](C)C[C@H](C)/C=C/C=C/C=C(\C)C(OC[C@@H](C)O)C[C@@H]3CC[C@@H](C)[C@@](O)(O3)C(=O)C(=O)N3CCCC[C@H]3C(=O)O2)CC[C@H]1OCCO (mixture of isomers) [Compound 49] | – | – | IC50 (mTORC1; [1]): 0.316 to 3.16 nM; IC50 (mTORC2; [2]): > 10000 nM
7 | CO[C@@H]1C[C@H](C[C@@H](C)[C@@H]2CC(=O)[C@H](C)/C=C(\C)[C@@H](O)[C@@H](OC)C(=O)[C@H](C)C[C@H](C)/C=C/C=C/C=C(\C)C(c3cccn3C)C[C@@H]3CC[C@@H](C)[C@@](O)(O3)C(=O)C(=O)N3CCCCC3C(=O)O2)CC[C@H]1O (stereo partly shown) [Compound 212] | 0.316 to 3.16 | 1000 to 10000 | –
8 | COC1C[C@@H]2CC[C@@H](C)[C@@](O)(O2)C(=O)C(=O)N2CCCCC2C(=O)O[C@H]([C@H](C)C[C@@H]2CC[C@@H](n3ncnn3)[C@H](OC)C2)CC(=O)[C@H](C)/C=C(\C)[C@@H](O)[C@@H](OC)C(=O)[C@H](C)C[C@H](C)/C=C/C=C/C=C/1C (stereo partly shown) [Compound 307] | < 0.316 | < 1000 | –
9 | COCCCOC1CC2CCC(C)C(O)(O2)C(=O)C(=O)N2CCCCC2C(=O)OC(C(C)CC2CCC(OCCCO)C(OC)C2)CC(=O)C(C)C=C(C)C(O)C(OC)C(=O)C(C)CC(C)C=CC=CC=C1C (stereo not shown) [Compound 33] | – | – | pIC50 mTORC1 (mTORC1; [1]): A (pIC50 for mTORC1 of >9.5 as A); pIC50 mTORC2 (mTORC2; [2]): B (5 to 6 as B)
10 | CO[C@@H]1C[C@H](C[C@@H](C)[C@@H]2CC(=O)[C@H](C)/C=C(\C)[C@@H](O)[C@@H](OC)C(=O)[C@H](C)C[C@H](C)/C=C/C=C/C=C(\C)C(c3ccc(C)s3)C[C@@H]3CC[C@@H](C)[C@@](O)(O3)C(=O)C(=O)N3CCCCC3C(=O)O2)CC[C@H]1O (stereo partly shown) [Compound 202] | > 3.16 | 1000 to 10000 | –

Continued, in another order:

Row | IC50 (mTORC1) [nM] | IC50 (mTORC2) [nM] | Structure (SMILES) | other results
11 | < 0.316 | < 1000 | COC1C[C@@H]2CC[C@@H](C)[C@@](O)(O2)C(=O)C(=O)N2CCCCC2C(=O)O[C@H]([C@H](C)C[C@@H]2CC[C@@H](OC(=O)NCCc3c[nH]cn3)[C@H](OC)C2)CC(=O)[C@H](C)/C=C(\C)[C@@H](O)[C@@H](OC)C(=O)[C@H](C)C[C@H](C)/C=C/C=C/C=C/1C (stereo partly shown) [Compound 364] | –
12 | < 0.316 | < 1000 | COC1C[C@@H]2CC[C@@H](C)[C@@](O)(O2)C(=O)C(=O)N2CCCCC2C(=O)O[C@H]([C@H](C)C[C@@H]2CC[C@@H](OCCCN3CCOCC3)[C@H](OC)C2)CC(=O)[C@H](C)/C=C(\C)[C@@H](O)[C@@H](OC)C(=O)[C@H](C)C[C@H](C)/C=C/C=C/C=C/1C (stereo partly shown) [Compound 322] | –
13 | < 0.316 | < 1000 | COC1C[C@@H]2CC[C@@H](C)[C@@](O)(O2)C(=O)C(=O)N2CCCCC2C(=O)O[C@H]([C@H](C)C[C@@H]2CC[C@@H](OCCOCCOCCOCCOCCO)[C@H](OC)C2)CC(=O)[C@H](C)/C=C(\C)[C@@H](O)[C@@H](OC)C(=O)[C@H](C)C[C@H](C)/C=C/C=C/C=C/1C (stereo partly shown) [Compound 350] | –
14 | < 0.316 | < 1000 | COC1C[C@@H]2CC[C@@H](C)[C@@](O)(O2)C(=O)C(=O)N2CCCCC2C(=O)O[C@H]([C@H](C)C[C@@H]2CC[C@@H](OC(=O)N(C)CCN(C)C)[C@H](OC)C2)CC(=O)[C@H](C)/C=C(\C)[C@@H](O)[C@@H](OC)C(=O)[C@H](C)C[C@H](C)/C=C/C=C/C=C/1C (stereo partly shown) [Compound 359] | –
15 | < 0.316 | < 1000 | COC1CC2CCC(C)C(O)(O2)C(=O)C(=O)N2CCCCC2C(=O)OC(C(C)CC2CCC(OC(=O)C3(C)COC(C)(C)OC3)C(OC)C2)CC(=O)C(C)C=C(C)C(O)C(OC)C(=O)C(C)CC(C)C=CC=CC=C1C (stereo not shown) [Compound 309] | –
16 | < 0.316 | < 1000 | COC1C[C@@H]2CC[C@@H](C)[C@@](O)(O2)C(=O)C(=O)N2CCCCC2C(=O)O[C@H]([C@H](C)C[C@@H]2CC[C@@H](OC(=O)NCCc3ccncc3)[C@H](OC)C2)CC(=O)[C@H](C)/C=C(\C)[C@@H](O)[C@@H](OC)C(=O)[C@H](C)C[C@H](C)/C=C/C=C/C=C/1C (stereo partly shown) [Compound 334] | –
17 | < 0.316 | < 1000 | COC1C[C@@H]2CC[C@@H](C)[C@@](O)(O2)C(=O)C(=O)N2CCCCC2C(=O)O[C@H]([C@H](C)C[C@@H]2CC[C@@H](OCCCN3CCCCC3)[C@H](OC)C2)CC(=O)[C@H](C)/C=C(\C)[C@@H](O)[C@@H](OC)C(=O)[C@H](C)C[C@H](C)/C=C/C=C/C=C/1C (stereo partly shown) [Compound 341] | –
18 | < 0.316 | < 1000 | COC1C[C@@H]2CC[C@@H](C)[C@@](O)(O2)C(=O)C(=O)N2CCCCC2C(=O)O[C@H]([C@H](C)C[C@@H]2CC[C@@H](OC(=O)CN(C)C)[C@H](OC)C2)CC(=O)[C@H](C)/C=C(\C)[C@@H](O)[C@@H](OC)C(=O)[C@H](C)C[C@H](C)/C=C/C=C/C=C/1C (stereo partly shown) [Compound 343] | –
19 | < 0.316 | < 1000 | COC1C[C@@H]2CC[C@@H](C)[C@@](O)(O2)C(=O)C(=O)N2CCCCC2C(=O)O[C@H]([C@H](C)C[C@@H]2CC[C@@H](OC(=O)N(C)CCN3CCOCC3)[C@H](OC)C2)CC(=O)[C@H](C)/C=C(\C)[C@@H](O)[C@@H](OC)C(=O)[C@H](C)C[C@H](C)/C=C/C=C/C=C/1C (stereo partly shown) [Compound 356] | –
20 | < 0.316 | < 1000 | COC1C[C@@H]2CC[C@@H](C)[C@@](O)(O2)C(=O)C(=O)N2CCCCC2C(=O)O[C@H]([C@H](C)C[C@@H]2CC[C@@H](OP(C)(C)=O)[C@H](OC)C2)CC(=O)[C@H](C)/C=C(\C)[C@@H](O)[C@@H](OC)C(=O)[C@H](C)C[C@H](C)/C=C/C=C/C=C/1C (stereo partly shown) [Compound 342] | –
21 | < 0.316 | < 1000 | COC1C[C@@H]2CC[C@@H](C)[C@@](O)(O2)C(=O)C(=O)N2CCCCC2C(=O)O[C@H]([C@H](C)C[C@@H]2CC[C@@H](OC(=O)NCCO)[C@H](OC)C2)CC(=O)[C@H](C)/C=C(\C)[C@@H](O)[C@@H](OC)C(=O)[C@H](C)C[C@H](C)/C=C/C=C/C=C/1C (stereo partly shown) [Compound 362] | –
22 | < 0.316 | < 1000 | COC1C[C@@H]2CC[C@@H](C)[C@@](O)(O2)C(=O)C(=O)N2CCCCC2C(=O)O[C@H]([C@H](C)C[C@@H]2CC[C@@H](OC(=O)NCCN3CCOCC3)[C@H](OC)C2)CC(=O)[C@H](C)/C=C(\C)[C@@H](O)[C@@H](OC)C(=O)[C@H](C)C[C@H](C)/C=C/C=C/C=C/1C (stereo partly shown) [Compound 336] | –
23 | < 0.316 | < 1000 | COC1C[C@@H]2CC[C@@H](C)[C@@](O)(O2)C(=O)C(=O)N2CCCCC2C(=O)O[C@H]([C@H](C)C[C@@H]2CC[C@@H](OC(=O)NCc3ccccc3)[C@H](OC)C2)CC(=O)[C@H](C)/C=C(\C)[C@@H](O)[C@@H](OC)C(=O)[C@H](C)C[C@H](C)/C=C/C=C/C=C/1C (stereo partly shown) [Compound 355] | –
